Like-named read-outs stand apart in the source and are kept apart here.
Columns and labels:
[1] = biological target: T1, EphB4 (Homo sapiens, UniProt P54760); assay: Cell capture ELISA of EphB4 phosphorylation in stably transfected A375 melanoma cells stimulated with ephrinB2; assay type: cell-based; details: two independent experiments
T1 sequence (P54760 16-987): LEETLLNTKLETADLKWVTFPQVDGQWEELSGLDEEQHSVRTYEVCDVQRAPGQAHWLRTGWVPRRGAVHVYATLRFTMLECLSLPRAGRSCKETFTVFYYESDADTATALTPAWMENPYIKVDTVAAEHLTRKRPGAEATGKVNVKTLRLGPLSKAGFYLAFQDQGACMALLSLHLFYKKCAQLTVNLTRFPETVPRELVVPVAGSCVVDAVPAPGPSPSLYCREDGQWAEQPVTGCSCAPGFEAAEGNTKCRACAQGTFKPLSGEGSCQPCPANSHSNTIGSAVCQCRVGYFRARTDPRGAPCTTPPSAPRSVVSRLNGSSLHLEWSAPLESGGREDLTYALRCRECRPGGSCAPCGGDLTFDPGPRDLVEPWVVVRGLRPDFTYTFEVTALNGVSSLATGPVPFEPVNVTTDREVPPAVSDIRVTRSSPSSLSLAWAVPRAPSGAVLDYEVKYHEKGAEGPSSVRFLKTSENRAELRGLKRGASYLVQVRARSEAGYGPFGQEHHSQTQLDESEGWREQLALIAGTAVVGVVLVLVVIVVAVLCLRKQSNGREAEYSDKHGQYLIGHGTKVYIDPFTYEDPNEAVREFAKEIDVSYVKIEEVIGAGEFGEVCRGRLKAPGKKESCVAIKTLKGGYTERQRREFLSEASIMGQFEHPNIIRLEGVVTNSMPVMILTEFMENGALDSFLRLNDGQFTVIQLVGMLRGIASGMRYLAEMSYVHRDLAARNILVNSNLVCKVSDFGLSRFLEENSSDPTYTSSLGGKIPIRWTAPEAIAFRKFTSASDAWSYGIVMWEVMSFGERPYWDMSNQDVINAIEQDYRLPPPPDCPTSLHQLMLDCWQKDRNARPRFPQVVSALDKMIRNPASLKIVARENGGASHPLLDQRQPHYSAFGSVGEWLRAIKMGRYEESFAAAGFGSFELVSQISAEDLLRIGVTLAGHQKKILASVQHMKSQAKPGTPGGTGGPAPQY
Method: A cell capture ELISA has been set up to quantify the amount of phosphorylated EphB4 receptor protein in cell extracts. To this purpose, A375 melanoma cells have been stably transfected with full length EphB4 and EphB4 phosphorylation was induced by the addition of the ligand ephrinB2 in the presence of vanadate. Lysates from unstimulated cells were used as negative controls. […] Measurements were done in duplicates and two independent experiments were performed. Cell lysates were prepared and the receptor protein was captured on ELISA plates. Phosphorylated receptor was detected and quantified using alkaline phosphatase coupled anti-phosphotyrosine antibodies.

[2] = biological target: T2, murine EphB4 kinase (Mus musculus, UniProt P54761); assay: EphB4 phosphorylation in lung tissue of mice (anti-pY Western blot of immunoprecipitates); assay type: in vivo; details: naïve mice, 50 mg/kg p.o.
T2 construct: from tissue; host or cells: mouse lung tissue
T2 sequence (P54761 16-987): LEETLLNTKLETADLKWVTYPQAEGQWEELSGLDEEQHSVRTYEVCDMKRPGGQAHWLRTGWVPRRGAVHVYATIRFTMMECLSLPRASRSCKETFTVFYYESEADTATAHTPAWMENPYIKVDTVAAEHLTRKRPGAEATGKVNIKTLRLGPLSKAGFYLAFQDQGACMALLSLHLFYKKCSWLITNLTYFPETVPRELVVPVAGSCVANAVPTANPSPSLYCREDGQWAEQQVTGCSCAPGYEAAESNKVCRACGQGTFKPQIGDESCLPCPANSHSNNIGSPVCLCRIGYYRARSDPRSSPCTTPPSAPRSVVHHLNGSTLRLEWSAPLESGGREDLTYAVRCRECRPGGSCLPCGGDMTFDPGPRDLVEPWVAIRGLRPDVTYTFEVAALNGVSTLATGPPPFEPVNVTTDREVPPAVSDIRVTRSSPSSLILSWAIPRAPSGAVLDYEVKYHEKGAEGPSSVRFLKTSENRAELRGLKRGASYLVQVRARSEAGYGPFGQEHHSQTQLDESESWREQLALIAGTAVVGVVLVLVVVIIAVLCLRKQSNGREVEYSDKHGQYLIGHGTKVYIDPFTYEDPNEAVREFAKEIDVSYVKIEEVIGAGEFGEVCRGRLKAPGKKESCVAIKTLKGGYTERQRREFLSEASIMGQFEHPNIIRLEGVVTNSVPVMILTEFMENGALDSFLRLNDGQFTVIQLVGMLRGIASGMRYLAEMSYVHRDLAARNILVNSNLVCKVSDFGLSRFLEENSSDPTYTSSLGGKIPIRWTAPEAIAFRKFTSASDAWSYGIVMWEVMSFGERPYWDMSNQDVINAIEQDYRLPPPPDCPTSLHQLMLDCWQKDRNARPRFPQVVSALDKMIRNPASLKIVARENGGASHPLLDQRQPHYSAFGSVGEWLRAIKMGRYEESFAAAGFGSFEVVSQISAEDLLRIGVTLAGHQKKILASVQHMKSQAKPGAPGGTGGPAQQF
Method: (§1) Plasma and lung samples were collected. Lung samples were split into two parts, one lobe was further processed for pharmacokinetic analysis, the other lobe was processed for analysis of phosphorylated EphB4 receptor. For controls, one group of animals was treated for 2 h with NMP (10%) PEG (90%).

[3] = mouse, in vivo, po, 50 mg/kg
Method: as §1

In the case of `Cc1cn(-c2cc(NC(=O)c3ccc(C)c(Nc4nccc(-c5cccnc5)n4)c3)cc(C(F)(F)F)c2)cn1` [4-Methyl-3-[[4-(3-pyridinyl)-2-pyrimidinyl]amino]-N-[5-(4-methyl-1H-imidazol-1-yl)-3-(trifluoromethyl)phenyl] benzamide], the “Inhibition of EphB4 phosphorylation” value [1] is reported as “dose dependently inhibited EphB4 phosphorylation”, the “Phosphorylation of EphB4 in lung tissue” value ([2]; 2 h after administration) is reported as “nearly abolished” and the “Phosphorylation of EphB4 in lung tissue” value ([2]; 24 h after administration) is reported as “recovers to control levels”. The “Effect on EphB4 protein levels in lung tissue” value ([2]; both time points (2 h and 24 h)) was “No effect”, the “Compound level in lung tissue” value ([3]; 2 h) was 40 to 50 nmol/g and the “Compound level in lung tissue” value ([3]; 24 h) was 0.7 nmol/g.
